{"source": "paper PMC7083225", "about": "(Cell Chemical Biology, 2020)", "molecules": {"B1": {"name": "VSD2-NavAb chimeric channel (hNav1.7 VSD2 sequences fused to a NavAb scaffold) (other)", "chain": "MYLRITNIVESSFFTKFIIYLIVLNTLFMAMEHHPMTEEFKNVLAIGNLVFTGIFAIEIILRIYVHRISFFKDPWSLFDSLIVTLSLVELFLADVEGLSVLRSFRLLRVFRLVTAVPQMRKIVSALISVIPGMLSVIALMTLFFYIFAIMATQLFGERFPEWFGTLGESFYTLFQVMTLESWSMGIVRPLMEVYPYAWVFFIPFIFVVTFVMINLVVAICVDAMAILNQKEEQHIIDEVQSHEDNINNEIIKLREEIVELKELIKTSLKN", "notes": "not shown: FLAG, N-terminal, kept"}}, "key": {"[1]": {"target": "human Nav1.7 (Homo sapiens, UniProt Q15858)", "sequence (Q15858 1-1977 isoform Q15858-4)": "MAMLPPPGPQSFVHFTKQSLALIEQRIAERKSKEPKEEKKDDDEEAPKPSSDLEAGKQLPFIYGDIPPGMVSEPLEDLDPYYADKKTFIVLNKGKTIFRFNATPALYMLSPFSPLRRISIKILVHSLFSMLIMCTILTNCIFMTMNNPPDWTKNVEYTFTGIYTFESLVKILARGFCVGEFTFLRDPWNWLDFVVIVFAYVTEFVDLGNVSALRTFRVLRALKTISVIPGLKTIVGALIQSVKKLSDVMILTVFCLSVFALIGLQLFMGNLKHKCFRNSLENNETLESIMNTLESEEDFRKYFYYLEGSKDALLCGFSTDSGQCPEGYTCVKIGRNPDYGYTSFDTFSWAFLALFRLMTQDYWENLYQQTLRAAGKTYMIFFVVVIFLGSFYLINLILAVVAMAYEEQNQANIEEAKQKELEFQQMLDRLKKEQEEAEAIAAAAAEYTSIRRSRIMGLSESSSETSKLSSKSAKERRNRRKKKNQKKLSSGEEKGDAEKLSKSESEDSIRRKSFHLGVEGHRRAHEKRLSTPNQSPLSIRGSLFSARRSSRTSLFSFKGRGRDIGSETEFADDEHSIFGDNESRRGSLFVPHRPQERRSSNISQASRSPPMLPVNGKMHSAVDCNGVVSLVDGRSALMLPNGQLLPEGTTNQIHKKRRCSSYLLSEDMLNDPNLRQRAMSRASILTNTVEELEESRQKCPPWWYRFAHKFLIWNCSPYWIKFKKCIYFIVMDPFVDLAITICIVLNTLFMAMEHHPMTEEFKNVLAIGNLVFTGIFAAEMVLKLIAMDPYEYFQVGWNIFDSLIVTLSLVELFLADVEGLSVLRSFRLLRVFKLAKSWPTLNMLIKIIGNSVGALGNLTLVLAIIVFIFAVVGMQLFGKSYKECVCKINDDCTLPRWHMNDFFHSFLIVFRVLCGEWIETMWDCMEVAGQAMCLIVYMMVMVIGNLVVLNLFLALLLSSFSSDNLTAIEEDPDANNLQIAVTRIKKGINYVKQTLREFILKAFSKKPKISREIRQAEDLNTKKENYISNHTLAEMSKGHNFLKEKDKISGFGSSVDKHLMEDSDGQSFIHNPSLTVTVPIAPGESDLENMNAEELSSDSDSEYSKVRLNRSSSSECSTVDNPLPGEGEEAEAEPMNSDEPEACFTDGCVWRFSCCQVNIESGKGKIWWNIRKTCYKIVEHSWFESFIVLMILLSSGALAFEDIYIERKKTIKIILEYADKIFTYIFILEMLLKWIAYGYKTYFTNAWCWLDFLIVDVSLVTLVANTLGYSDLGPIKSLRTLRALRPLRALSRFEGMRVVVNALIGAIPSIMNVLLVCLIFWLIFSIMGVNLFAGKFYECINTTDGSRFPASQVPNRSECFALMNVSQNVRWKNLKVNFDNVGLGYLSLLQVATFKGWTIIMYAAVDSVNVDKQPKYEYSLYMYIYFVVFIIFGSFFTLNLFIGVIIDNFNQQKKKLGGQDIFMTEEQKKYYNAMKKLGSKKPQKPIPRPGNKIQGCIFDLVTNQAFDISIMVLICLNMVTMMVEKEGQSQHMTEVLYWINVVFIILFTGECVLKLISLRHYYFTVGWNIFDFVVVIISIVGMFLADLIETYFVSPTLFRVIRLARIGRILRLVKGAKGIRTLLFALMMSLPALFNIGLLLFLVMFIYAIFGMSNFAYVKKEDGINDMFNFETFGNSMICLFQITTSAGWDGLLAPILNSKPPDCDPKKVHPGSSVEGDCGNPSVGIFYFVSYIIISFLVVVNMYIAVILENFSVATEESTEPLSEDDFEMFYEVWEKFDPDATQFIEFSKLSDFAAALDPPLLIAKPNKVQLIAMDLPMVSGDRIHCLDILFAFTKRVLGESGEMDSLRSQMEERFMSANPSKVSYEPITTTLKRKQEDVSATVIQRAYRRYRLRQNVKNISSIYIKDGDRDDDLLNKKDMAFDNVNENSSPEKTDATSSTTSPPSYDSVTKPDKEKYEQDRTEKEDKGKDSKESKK", "test": "Automated patch-clamp electrophysiology, CHO cells expressing Nav1.7", "type": "cell-based", "details": "SyncroPatch 768PE automated patch clamp; CHO stable cell line expressing human Nav1.7; holding -120 mV, 10 ms pulse to -10 mV every 2 s; 25 min compound; four-parameter Hill fit, each point n = 3-20; read-out: IC50 (nM), Nav1.7 inhibition", "protocol": "The obtained photoprobes were evaluated in a patch-clamp assay using CHO cells expressing Nav1.7 (Figure 1D).\nFor electrophysiological recordings, the human Nav1.7 (XM_011511618) expressing CHO stable cell line (Anaxon, Switzerland) was cultured in Ham’s F12 medium supplemented with 10% FBS, 2 mM L-Glutamine and required selection antibiotic in 5% CO2 at 37°C.\nFor all Nav channel recordings, the intracellular solution contained (in mM): 50 CsCl, 60 CsF, 10 NaCl, 20 EGTA and 10 HEPES (pH 7.2, osmolarity 285 mOsm), and extracellular solution contained (in mM): 80 NaCl, 60 NMDG, 4 KCl, 2 CaCl2, 1 MgCl2, 5 glucose and 10 HEPES (pH 7.4, osmolarity 300 mOsm). Automated patch clamp (APC) recordings were performed by using SyncroPatch 768PE (Nanion Technologies, Germany), with PatchController384 V1.5.2 and DataController384 V1.5.0 software for pulse generation and data collection. Currents were sampled at 10 kHz and filtered with Bessel filter. Series resistance was compensated 80% with leak subtraction. Seal resistance (Rseal) was calculated using built-in protocols, and high-quality recoding data was obtained by auto filtering 3 quality control criteria: cell catching (>10 MΩ), seal resistance (>500 MΩ) and baseline current amplitude (>500 pA), and follow with manual inspection. The voltage protocol for all toxin pharmacological tests was set with holding membrane potential (Vm) at -120 mV, eliciting a 10 ms pulse to -10 mV every 2 s, recording 5 min for baseline and followed with examining compound effect for 25 min. Nav channel inhibition was calculated as the percentage of peak current (I) decrease from before compound application (I_Baseline) to the end of 25 minutes compound application (I_End) and both being normalized to the end of experiment full block current (I_Fullblock) using this following equation: Block%=[1−(Iend−Ifullblock/Ibaseline−Ifullblock)]×100%\nAll Nav channel inhibitions were presented as mean ± standard error of the mean from at least three independent trials."}, "[2]": {"target": "the molecule itself", "test": "SEC; size-exclusion chromatography after anti-FLAG affinity purification, in GDN detergent"}}}
{"molecule": "CC[C@H](C)[C@H](NC(=O)[C@H](CCC(N)=O)NC(=O)[C@H](Cc1ccc(O)cc1)NC(=O)[C@H](CCCCN)NC(=O)[C@@H]1CSSC[C@@H]2NC(=O)[C@H](CCC(N)=O)NC(=O)[C@H](CC(=O)O)NC(=O)[C@H](CC(N)=O)NC(=O)[C@H](CO)NC(=O)[C@@H]3CCCN3C(=O)[C@H](CC(N)=O)NC(=O)[C@@H]3CSSC[C@H](NC(=O)[C@H](C(C)C)NC(=O)[C@H](CC(C)C)NC(=O)[C@H](CCCCN)NC(=O)[C@H](CO)NC(=O)[C@H](CO)NC(=O)[C@H](CCCCN)NC(=O)[C@H](CSSC[C@H](NC(=O)[C@@H](N)CCC(=O)O)C(=O)N[C@@H](CC(C)C)C(=O)N[C@@H](CCC(=O)O)C(=O)N[C@@H](CCC4(C)N=N4)C(=O)N[C@@H](Cc4ccccc4)C(=O)N[C@@H](CCCCN)C(=O)N[C@@H](C)C(=O)N3)NC2=O)C(=O)N[C@@H](CO)C(=O)N[C@@H](CCCNC(=N)N)C(=O)N[C@@H](CCCCN)C(=O)N[C@@H]([C@@H](C)O)C(=O)N[C@@H](CCCNC(=N)N)C(=O)N[C@@H](Cc2c[nH]c3ccccc23)C(=O)N1)C(N)=O", "note": "[HTMp5]", "values": [{"measurement": "IC50", "setting": "[1]", "value": 41, "unit": "nM"}]}
{"molecule": "CC[C@H](C)[C@H](NC(=O)[C@H](CCC(N)=O)NC(=O)[C@H](Cc1ccc(O)cc1)NC(=O)[C@H](CCCCN)NC(=O)[C@@H]1CSSC[C@@H]2NC(=O)[C@H](CCC(N)=O)NC(=O)[C@H](CC(=O)O)NC(=O)[C@H](CC(N)=O)NC(=O)[C@H](CO)NC(=O)[C@@H]3CCCN3C(=O)[C@H](CC(N)=O)NC(=O)[C@@H]3CSSC[C@H](NC(=O)[C@H](C(C)C)NC(=O)[C@H](CC(C)C)NC(=O)[C@H](CCCCN)NC(=O)[C@H](CO)NC(=O)[C@H](CO)NC(=O)[C@H](CCCCN)NC(=O)[C@H](CSSC[C@H](NC(=O)[C@@H](N)CCC(=O)O)C(=O)N[C@@H](CC(C)C)C(=O)N[C@@H](CCC(=O)O)C(=O)N[C@@H]([C@@H](C)CC)C(=O)N[C@@H](Cc4ccccc4)C(=O)N[C@@H](CCC4(C)N=N4)C(=O)N[C@@H](C)C(=O)N3)NC2=O)C(=O)N[C@@H](CO)C(=O)N[C@@H](CCCNC(=N)N)C(=O)N[C@@H](CCCCN)C(=O)N[C@@H]([C@@H](C)O)C(=O)N[C@@H](CCCNC(=N)N)C(=O)N[C@@H](Cc2c[nH]c3ccccc23)C(=O)N1)C(N)=O", "note": "[HTMp7]", "values": [{"measurement": "IC50", "setting": "[1]", "value": 40, "unit": "nM"}]}
{"molecule": "CC[C@H](C)[C@H](NC(=O)[C@H](CCC(N)=O)NC(=O)[C@H](Cc1ccc(O)cc1)NC(=O)[C@H](CCCCN)NC(=O)[C@@H]1CSSC[C@@H]2NC(=O)[C@H](CCC(N)=O)NC(=O)[C@H](CC(=O)O)NC(=O)[C@H](CC(N)=O)NC(=O)[C@H](CO)NC(=O)[C@@H]3CCCN3C(=O)[C@H](CC(N)=O)NC(=O)[C@@H]3CSSC[C@H](NC(=O)[C@H](C(C)C)NC(=O)[C@H](CC(C)C)NC(=O)[C@H](CCC4(C)N=N4)NC(=O)[C@H](CO)NC(=O)[C@H](CO)NC(=O)[C@H](CCCCN)NC(=O)[C@H](CSSC[C@H](NC(=O)[C@@H](N)CCC(=O)O)C(=O)N[C@@H](CC(C)C)C(=O)N[C@@H](CCC(=O)O)C(=O)N[C@@H]([C@@H](C)CC)C(=O)N[C@@H](Cc4ccccc4)C(=O)N[C@@H](CCCCN)C(=O)N[C@@H](C)C(=O)N3)NC2=O)C(=O)N[C@@H](CO)C(=O)N[C@@H](CCCNC(=N)N)C(=O)N[C@@H](CCCCN)C(=O)N[C@@H]([C@@H](C)O)C(=O)N[C@@H](CCCNC(=N)N)C(=O)N[C@@H](Cc2c[nH]c3ccccc23)C(=O)N1)C(N)=O", "note": "[HTMp21]", "values": [{"measurement": "IC50", "setting": "[1]", "value": 35, "unit": "nM"}]}
{"molecule": "CC[C@H](C)[C@H](NC(=O)[C@H](CCC(N)=O)NC(=O)[C@H](Cc1ccc(O)cc1)NC(=O)[C@H](CCCCN)NC(=O)[C@@H]1CSSC[C@@H]2NC(=O)[C@H](CCC(N)=O)NC(=O)[C@H](CC(=O)O)NC(=O)[C@H](CC(N)=O)NC(=O)[C@H](CO)NC(=O)[C@@H]3CCCN3C(=O)[C@H](CC(N)=O)NC(=O)[C@@H]3CSSC[C@H](NC(=O)[C@H](C(C)C)NC(=O)[C@H](CC(C)C)NC(=O)[C@H](CCCCN)NC(=O)[C@H](CO)NC(=O)[C@H](CO)NC(=O)[C@H](CCCCN)NC(=O)[C@H](CSSC[C@H](NC(=O)[C@@H](N)CCC(=O)O)C(=O)N[C@@H](CC(C)C)C(=O)N[C@@H](CCC(=O)O)C(=O)N[C@@H]([C@@H](C)CC)C(=O)N[C@@H](Cc4ccccc4)C(=O)N[C@@H](CCCCN)C(=O)N[C@@H](C)C(=O)N3)NC2=O)C(=O)N[C@@H](CO)C(=O)N[C@@H](CCCNC(=N)N)C(=O)N[C@@H](CCC2(C)N=N2)C(=O)N[C@@H]([C@@H](C)O)C(=O)N[C@@H](CCCNC(=N)N)C(=O)N[C@@H](Cc2c[nH]c3ccccc23)C(=O)N1)C(N)=O", "note": "[HTMp27]", "values": [{"measurement": "IC50", "setting": "[1]", "value": 80, "unit": "nM"}]}
{"molecule": "CC[C@H](C)[C@H](NC(=O)[C@H](CCC(N)=O)NC(=O)[C@H](Cc1ccc(O)cc1)NC(=O)[C@H](CCCCN)NC(=O)[C@@H]1CSSC[C@@H]2NC(=O)[C@H](CCC(N)=O)NC(=O)[C@H](CC(=O)O)NC(=O)[C@H](CC(N)=O)NC(=O)[C@H](CO)NC(=O)[C@@H]3CCCN3C(=O)[C@H](CC(N)=O)NC(=O)[C@@H]3CSSC[C@H](NC(=O)[C@H](C(C)C)NC(=O)[C@H](CC(C)C)NC(=O)[C@H](CCCCN)NC(=O)[C@H](CO)NC(=O)[C@H](CO)NC(=O)[C@H](CCCCN)NC(=O)[C@H](CSSC[C@H](NC(=O)[C@@H](N)CCC(=O)O)C(=O)N[C@@H](CC(C)C)C(=O)N[C@@H](CCC(=O)O)C(=O)N[C@@H]([C@@H](C)CC)C(=O)N[C@@H](Cc4ccccc4)C(=O)N[C@@H](CCCCN)C(=O)N[C@@H](C)C(=O)N3)NC2=O)C(=O)N[C@@H](CO)C(=O)N[C@@H](CCCNC(=N)N)C(=O)N[C@@H](CCCCN)C(=O)N[C@@H]([C@@H](C)O)C(=O)N[C@@H](CCC2(C)N=N2)C(=O)N[C@@H](Cc2c[nH]c3ccccc23)C(=O)N1)C(N)=O", "note": "[HTMp29]", "values": [{"measurement": "IC50", "setting": "[1]", "value": 68, "unit": "nM"}]}
{"molecule": "CC[C@H](C)[C@@H]1NC(=O)[C@H](CCC(=O)O)NC(=O)[C@H](CC(C)C)NC(=O)[C@@H](NC(=O)[C@@H](N)CCC(=O)O)CSSC[C@@H]2NC(=O)[C@@H]3CSSC[C@@H](C(=O)N[C@@H](CCCCN)C(=O)N[C@@H](Cc4ccc(O)cc4)C(=O)N[C@@H](CCC(N)=O)C(=O)N[C@@H](CCC4(C)N=N4)C(N)=O)NC(=O)[C@H](Cc4c[nH]c5ccccc45)NC(=O)[C@H](CCCNC(=N)N)NC(=O)[C@H]([C@@H](C)O)NC(=O)[C@H](CCCCN)NC(=O)[C@H](CCCNC(=N)N)NC(=O)[C@H](CO)NC(=O)[C@H](CSSC[C@H](NC(=O)[C@H](C)NC(=O)[C@H](CCCCN)NC(=O)[C@H](Cc4ccccc4)NC1=O)C(=O)N[C@@H](CC(N)=O)C(=O)N1CCC[C@H]1C(=O)N[C@@H](CO)C(=O)N[C@@H](CC(N)=O)C(=O)N[C@@H](CC(=O)O)C(=O)N[C@@H](CCC(N)=O)C(=O)N3)NC(=O)[C@H](C(C)C)NC(=O)[C@H](CC(C)C)NC(=O)[C@H](CCCCN)NC(=O)[C@H](CO)NC(=O)[C@H](CO)NC(=O)[C@H](CCCCN)NC2=O", "note": "[HTMp35]", "values": [{"measurement": "IC50", "setting": "[1]", "value": 13, "unit": "nM"}]}
{"molecule": "B1", "values": [{"measurement": "binding result", "setting": "[2]", "value": "binds"}]}
